The source of these data is ChEMBL document CHEMBL1201862, “PubChem BioAssay data set” (2004).

Structures are written as SMILES.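 Tested at 5 concentrations; 48 h exposure; 96-well plates; endpoints linearly interpolated, else capped at highest concentration. GI50 marks 50% less growth.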 Calls of active or inactive are those of the source. Rule as the data show it: active = GI50 up to about 1.1 µM and inactive = higher. A value given as a limit tells only on which side of the number the result lay.

Test systems include HT-29; SK-MEL-28; KM12; SW-620; UACC-257; A498; U-251; OVCAR-4; UO-31; OVCAR-3; SF-295; HCT-15; RPMI-8226; NCI-H226; IGROV-1; HL-60; NCI-H522; MDA-MB-231; DU-145.
What all share (test): inhibition of tumour cell growth, NCI panel, 48 h

As to `CS(=O)(=O)ON1C(=O)c2ccc(N)cc2C1=O`, the GI50 in the experiment on HT-29 was > 79.3 µM (inactive); in the experiment with SK-MEL-28, > 49.4 µM (inactive); with KM12, > 100 µM (inactive); in the experiment with SW-620, 52.1 µM (inactive); in the experiment on UACC-257 it was > 31.6 µM (inactive); in the experiment on A498, > 100 µM (inactive). The GI50 with U-251 was > 100 µM (inactive); in the experiment with OVCAR-4, > 100 µM (inactive); in the experiment on UO-31, > 100 µM (inactive); with OVCAR-3 it was > 100 µM (inactive); in the experiment with SF-295 it was > 100 µM (inactive); in the experiment with HCT-15 it was 71.4 µM. Also, the GI50 in the experiment with RPMI-8226 is 23.8 µM (inactive); in the experiment on NCI-H226 it was > 100 µM (inactive); with IGROV-1, > 100 µM (inactive); with HL-60 it was 17.5 µM (inactive); in the experiment on NCI-H522, 19.4 µM (inactive).
With `O=C1C=CC2(C=C1)CCNC1=C2C(=O)c2ccccc2C1=O`, the GI50 was > 100 µM (inactive) in the experiment with HT-29; > 100 µM (inactive) in the experiment on SK-MEL-28; > 100 µM (inactive) with KM12; > 100 µM (inactive) with SW-620; 50 µM (inactive) with UACC-257; > 100 µM (inactive) with A498. Besides, the GI50 in the experiment on U-251 was > 100 µM (inactive); in the experiment on OVCAR-4, > 100 µM (inactive); in the experiment on UO-31, > 100 µM (inactive); in the experiment with OVCAR-3, 28.5 µM (inactive); in the experiment on SF-295 it was > 100 µM (inactive); with HCT-15 it was greater than 100 µM. Besides, the GI50 in the experiment on RPMI-8226, in the experiment on NCI-H226, in the experiment on IGROV-1, in the experiment on HL-60 and in the experiment with NCI-H522 was > 100 µM (inactive) each time.
For `c1cc(-c2cn3ccsc3n2)ccn1`, the GI50 with HT-29 was > 100 µM (inactive); with SK-MEL-28 it was > 100 µM (inactive); in the experiment on KM12, > 100 µM (inactive); in the experiment on SW-620, > 43.1 µM (inactive); in the experiment with UACC-257 it was > 100 µM (inactive); in the experiment with A498 it was > 100 µM (inactive). For the same molecule, the GI50 was > 100 µM (inactive) in the experiment on U-251; > 65.8 µM (inactive) in the experiment on OVCAR-4; > 100 µM (inactive) in the experiment on UO-31; > 100 µM (inactive) in the experiment with OVCAR-3; > 100 µM (inactive) in the experiment on SF-295; greater than 44.2 µM in the experiment with HCT-15. The GI50 was > 54.5 µM (inactive) in the experiment on RPMI-8226; > 100 µM (inactive) with NCI-H226; > 100 µM (inactive) in the experiment on IGROV-1; > 44.9 µM (inactive) in the experiment with HL-60; > 100 µM (inactive) in the experiment with NCI-H522.
For the molecule `CCCCCCCCCCCCCCCCCCNc1ccn(C2OC(COP(=O)(O)O)C(O)C2O)c(=O)n1` (stereo not drawn), the GI50 in the experiment on HT-29, with SK-MEL-28, with KM12, in the experiment with SW-620, in the experiment with UACC-257 and in the experiment on A498 was > 100 µM (inactive) throughout. Moreover, the GI50 in the experiment with U-251 was > 100 µM (inactive); with OVCAR-4 it was > 100 µM (inactive); in the experiment on UO-31, > 100 µM (inactive); in the experiment with OVCAR-3 it was > 100 µM (inactive); in the experiment with SF-295 it was > 100 µM (inactive); in the experiment with HCT-15, greater than 100 µM. For the same molecule, the GI50 in the experiment with RPMI-8226, in the experiment on NCI-H226, in the experiment with IGROV-1, in the experiment on MDA-MB-231, in the experiment on DU-145 and in the experiment with NCI-H522 was > 100 µM (inactive) throughout.
`N=C(N)C1=C(O)NC(=O)N(C2CCCCC2)C1`: the GI50 in the experiment on HT-29, in the experiment with SK-MEL-28, in the experiment with KM12, in the experiment on SW-620, with UACC-257 and in the experiment with A498 was > 100 µM (inactive) throughout. Besides, the GI50 in the experiment with U-251 is > 100 µM (inactive); in the experiment on OVCAR-4, > 100 µM (inactive); in the experiment on UO-31, > 100 µM (inactive); in the experiment with OVCAR-3 it was > 100 µM (inactive); in the experiment with SF-295 it was > 100 µM (inactive); with HCT-15, greater than 100 µM. Moreover, the GI50 in the experiment on RPMI-8226, in the experiment on NCI-H226, with IGROV-1, in the experiment with HL-60 and with NCI-H522 was > 100 µM (inactive) each time.
In the case of `COc1cc([C@@H]2c3cc4c(cc3[C@@H](NC(=O)c3ccccc3)C3COC(=O)[C@@H]32)OCO4)cc(OC)c1O` (stereo partly drawn), the GI50 with HT-29 was 3.18 µM (inactive); in the experiment on SK-MEL-28 it was 13.8 µM (inactive); with KM12, 7.28 µM (inactive); in the experiment with SW-620, 10.3 µM (inactive); in the experiment with UACC-257, 2.99 µM (inactive); in the experiment on A498, 6.1 µM (inactive). The GI50 was 1.32 µM (inactive) with U-251; 39.7 µM (inactive) with OVCAR-4; 4.89 µM (inactive) in the experiment with UO-31; 20.8 µM (inactive) in the experiment with OVCAR-3; 3.51 µM (inactive) with SF-295; 9.84 µM with HCT-15. Besides, the GI50 in the experiment on RPMI-8226 was 2.61 µM (inactive); in the experiment on NCI-H226 it was 1.53 µM (inactive); in the experiment with IGROV-1, 1.65 µM (inactive); in the experiment on HL-60, 1.87 µM (inactive); with NCI-H522, 0.423 µM (active).
Consider `C=CCNC(=O)NC1=CSC2=NC(=O)C3(NN12)c1ccccc1-c1ccccc13`, for which the GI50 in the experiment on HT-29, in the experiment with SK-MEL-28, in the experiment on KM12, with SW-620, in the experiment with UACC-257 and in the experiment with OVCAR-4 was > 10 µM (inactive) each time. Moreover, the GI50 was 8.24 µM (inactive) in the experiment on UO-31; > 10 µM (inactive) in the experiment on SF-295; greater than 10 µM in the experiment on HCT-15; > 10 µM (inactive) in the experiment on RPMI-8226; > 10 µM (inactive) in the experiment on NCI-H226; > 10 µM (inactive) in the experiment on IGROV-1. The GI50 in the experiment with HL-60, in the experiment on MDA-MB-231, in the experiment on DU-145 and in the experiment with NCI-H522 was > 10 µM (inactive) in each case.
In the case of `Cc1ccc(C(=O)O)cc1NC(=O)c1cc(/C=C/c2ccccc2)[nH]c(=S)n1`, the GI50 is > 64.4 µM (inactive) in the experiment with HT-29; > 100 µM (inactive) in the experiment on SK-MEL-28; > 100 µM (inactive) in the experiment on KM12; > 28.9 µM (inactive) in the experiment with SW-620; > 100 µM (inactive) in the experiment with UACC-257; > 100 µM (inactive) in the experiment on A498. Besides, the GI50 in the experiment with U-251 was > 100 µM (inactive); in the experiment on OVCAR-4, > 100 µM (inactive); in the experiment with UO-31, > 100 µM (inactive); in the experiment with OVCAR-3, > 100 µM (inactive); with SF-295 it was > 100 µM (inactive); with HCT-15, greater than 45 µM. The GI50 in the experiment on RPMI-8226 was > 44.1 µM (inactive); in the experiment on NCI-H226, > 100 µM (inactive); with IGROV-1, > 100 µM (inactive); in the experiment on HL-60, > 69 µM (inactive); in the experiment with NCI-H522, > 100 µM (inactive).
`COc1cc2nncc(Sc3cnnc4ccccc34)c2cc1OC`: the GI50 is 21.6 µM (inactive) in the experiment on HT-29; 23 µM (inactive) in the experiment with SK-MEL-28; 18.9 µM (inactive) with KM12; 16.6 µM (inactive) with SW-620; 23.1 µM (inactive) in the experiment with UACC-257; 26.7 µM (inactive) with A498. Further, the GI50 with U-251 is 25.5 µM (inactive); with OVCAR-4, 10.1 µM (inactive); in the experiment with UO-31, 19.1 µM (inactive); in the experiment on OVCAR-3, 17.4 µM (inactive); with SF-295, 26.9 µM (inactive); in the experiment on HCT-15, 24.7 µM. For the same molecule, the GI50 was 16.9 µM (inactive) in the experiment on RPMI-8226; 23.7 µM (inactive) in the experiment on NCI-H226; 21.9 µM (inactive) in the experiment on IGROV-1; 22.1 µM (inactive) in the experiment on HL-60; 12.9 µM (inactive) in the experiment on NCI-H522.
